From US20250064740A1, “MULTI-VESICULAR LIPID NANOPARTICLE TOLEROGENIC VACCINES FOR INDUCTION OF SYSTEMIC IMMUNE TOLERANCE IN VIVO” (KARMA BIOTECHNOLOGIES, priority 2022, published 2025)

What was measured:
[1] = system: murine bone marrow-derived macrophages; experiment: In vitro immunogenicity: TNFa release by ELISA; format: cell-based, mouse; settings: positive controls
Source text: TNFa release was quantitated by ELISA. Bar charts show mean TNFa release per treatment group (n=3 replicates per treatment group). Error bars indicate SEM. Filled circles indicate mean TNFa release for each individual replicate for each treatment group. Colors of filled circles indicate treatment group.

HepG2 cells = experiment: SNIPR [pEGFP] transfection of a liver cell line with caveolin inhibitor; format: cell-based; settings: MbC 15 uM, 1 h pretreatment, 48 h
Jurkat cells = experiment: SNIPR uptake/transfection of a T cell line with endocytosis inhibitors; format: cell-based; settings: MbC 15 uM, 1 h pretreatment

| Substance | TNFa release [1] | Transfection of a liver cell line by pDNA-loaded SNIPR nanoparticles in presence of inhibitor (HepG2 cells) | Transfection of a T cell line by pDNA-loaded SNIPR nanoparticles in presence of inhibitor (Jurkat cells) |
| --- | --- | --- | --- |
| lipopolysaccharide [LPS] | strongly elicited |  |  |
| Methyl-beta-cyclodextrin [MbC] |  | abrogated | abrogated |
